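Where inhibition never reached the appropriate level, the endpoint shown equals the highest concentration tested. Otherwise, values were interpolated linearly from a five-concentration, 48-hour dose response in 96-well plates. GI50: concentration for 50% inhibition of growth. TGI is the concentration that stops growth completely.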
Key:
Experiment in all cases: inhibition of tumour cell growth, NCI panel, 48 h; in the data active = GI50 below about 0.43 µM; inactive = the rest
786-0 renal = tested on: 786-0 renal
A498 renal = tested on: A498 renal
A549 NSCLC = tested on: A549 NSCLC
ACHN renal = tested on: ACHN renal
BT-549 breast = tested on: BT-549 breast
CAKI-1 renal = tested on: CAKI-1 renal
CCRF-CEM leukemia = tested on: CCRF-CEM leukemia
COLO 205 colon = tested on: COLO 205 colon
DU-145 prostate = tested on: DU-145 prostate
EKVX NSCLC = tested on: EKVX NSCLC
HCC-2998 colon = tested on: HCC-2998 colon
HCT-116 colon = tested on: HCT-116 colon
HCT-15 colon = tested on: HCT-15 colon
HL-60(TB) leukemia = tested on: HL-60(TB) leukemia
HOP-62 NSCLC = tested on: HOP-62 NSCLC
HOP-92 NSCLC = tested on: HOP-92 NSCLC
HS 578T breast = tested on: HS 578T breast
HT29 colon = tested on: HT29 colon
IGROV1 ovarian = tested on: IGROV1 ovarian
K-562 leukemia = tested on: K-562 leukemia
KM12 colon = tested on: KM12 colon
LOX IMVI melanoma = tested on: LOX IMVI melanoma
M14 melanoma = tested on: M14 melanoma
MALME-3M melanoma = tested on: MALME-3M melanoma
MCF7 breast = tested on: MCF7 breast
MDA-MB-231 breast = tested on: MDA-MB-231 breast
MDA-MB-435 = tested on: MDA-MB-435
MOLT-4 leukemia = tested on: MOLT-4 leukemia

CO[C@H](C(=O)[C@@H](O)[C@@H](C)O)[C@@H]1Cc2cc3cc(O[C@H]4C[C@@H](O[C@H]5C[C@@H](O)[C@H](O)C(C)O5)[C@H](O)C(C)(O)O4)cc(O)c3c(O)c2C(=O)[C@H]1O[C@H]1C[C@@H](O[C@H]2C[C@@H](O[C@H]3C[C@@H](OC)[C@H](O)C(C)O3)[C@@H](O)C(C)O2)[C@H](O)C(C)O1 (stereo not given in full)
> 16.8 µM: TGI (786-0 renal) | TGI (A549 NSCLC) | TGI (ACHN renal) | TGI (BT-549 breast) | TGI (CAKI-1 renal) | TGI (CCRF-CEM leukemia) | TGI (DU-145 prostate) | TGI (EKVX NSCLC) | TGI (HCC-2998 colon) | TGI (HCT-116 colon) | TGI (HCT-15 colon) | TGI (HL-60(TB) leukemia) | TGI (HOP-62 NSCLC) | TGI (HS 578T breast) | TGI (HT29 colon) | TGI (IGROV1 ovarian) | TGI (K-562 leukemia) | TGI (KM12 colon) | TGI (LOX IMVI melanoma) | TGI (M14 melanoma) | TGI (MCF7 breast) | TGI (MDA-MB-231 breast) | TGI (MDA-MB-435)
1.29 µM: TGI (A498 renal)
4.94 µM: TGI (COLO 205 colon)
active: GI50 (A498 renal) 0.369 µM | GI50 (LOX IMVI melanoma) 0.384 µM | GI50 (MALME-3M melanoma) 0.212 µM | GI50 (MCF7 breast) 0.185 µM
8.66 µM: TGI (HOP-92 NSCLC)
14 µM: TGI (MALME-3M melanoma)
inactive: GI50 (786-0 renal) 1.51 µM | GI50 (A549 NSCLC) 0.828 µM | GI50 (ACHN renal) 3.68 µM | GI50 (BT-549 breast) 2.04 µM | GI50 (CAKI-1 renal) > 16.8 µM | GI50 (CCRF-CEM leukemia) 5 µM | GI50 (COLO 205 colon) 0.72 µM | GI50 (DU-145 prostate) 0.976 µM | GI50 (EKVX NSCLC) 1.5 µM | GI50 (HCC-2998 colon) 1.92 µM | GI50 (HCT-116 colon) 0.542 µM | GI50 (HCT-15 colon) > 16.8 µM | GI50 (HL-60(TB) leukemia) 11.2 µM | GI50 (HOP-62 NSCLC) 0.521 µM | GI50 (HOP-92 NSCLC) 0.528 µM | GI50 (HS 578T breast) 0.708 µM | GI50 (HT29 colon) 1.16 µM | GI50 (IGROV1 ovarian) 0.809 µM | GI50 (K-562 leukemia) 0.951 µM | GI50 (KM12 colon) 0.786 µM | GI50 (M14 melanoma) 2.56 µM | GI50 (MDA-MB-231 breast) 1.89 µM | GI50 (MDA-MB-435) 0.895 µM | GI50 (MOLT-4 leukemia) 1.2 µM

— PubChem BioAssay (NCI)
